Laboratory results reported in patent publication US20100305150A1, “TUBEROUS SCLEROSIS TREATMENT” (priority 2006, published 2010).

Key:
[1] = system: Tsc1−/− and Tsc2−/− and control MEF cell lines; test: Growth of Tsc1−/−, Tsc2−/− and control MEF cell lines, MTT assay; format: cell-based; settings: Tsc1 null and control MEF cell lines
Description: MEF cell lines are generated in which there is loss of either Tsc1 or Tsc2 and which have a profound decrease in signaling through Akt. Decreased Akt activation may be seen in response to all stimuli, including serum, PDGF, EGF, insulin, and IGF1. […] In addition, over-expression of PDGFRα by short or long-term transfection leads to increased Akt phosphorylation and stimulation in response to multiple growth factors.
Signaling in Tsc 1 or Tsc 2 null MEFs in response to IGF1 in combination with a Compound A may be explored. Wortmannin may be used as an […].
Growth of Tsc1−/− and Tsc2−/− and control MEF cell lines in serum may be assessed in triplicate wells of cells plated at uniform density using the MTT assay. Growth responses are normalized individually for each cell line, to growth in the absence of any stimulation.

[2] = system: kidney and liver tumors in Tsc1+/− mice; test: Treatment trial in Tsc1+/− mouse model of Tsc (1 month study); format: in vivo; settings: female mice only
Method: (§1) Also trials of treatment with a Compound A in mouse models of Tsc may be carried out (1 month study). A first trial is performed in the Tsc1+/− mice, in which there is a sex effect on tumor development, so that female mice are studied only. A second trial is performed in Tsc2+/− mice, in which the use of the carcinogen ENU is performed to enhance and accelerate the rate of tumor formation in the kidney.

[3] = system: kidney and liver tumors in Tsc2+/− mice; test: Treatment trial in Tsc2+/− mouse model of Tsc with carcinogen ENU (1 month study); format: in vivo; settings: ENU to accelerate kidney tumor formation
Method: as §1

[4] = system: NF1 deficient cell or animals (mice) models; test: Activity in neurofibromatosis, NF1 deficient cell or animal models
Description: Activity in neurofibromatosis may be determined in NF1 deficient cell or animals (mice) models, e.g. analogously to TSC deficient cell or animals (mice) models.

CO[C@H]1C[C@@H]2CC[C@@H](C)[C@@](O)(O2)C(=O)C(=O)N2CCCC[C@H]2C(=O)O[C@H]([C@H](C)C[C@@H]2CC[C@@H](OCCO)[C@H](OC)C2)CC(=O)[C@H](C)/C=C(\C)[C@@H](O)[C@@H](OC)C(=O)[C@H](C)C[C@H](C)/C=C/C=C/C=C/1C [Compound A, 40-O-(2-hydroxyethyl)-rapamycin]
growth response of the cells to IGF1 ([1]; IGF1 stimulation): blocks any growth response of the cells to IGF1
growth of the cell lines (MTT assay) ([1]; serum or IGF1 stimulation, all conditions): significantly reduces growth under all conditions
reduction of kidney and liver tumors [2]: dramatic effect in reducing kidney and liver tumors
reduction of kidney and liver tumors [3]: dramatic effect in reducing kidney and liver tumors
activity in neurofibromatosis assays [4]: shows activity
